Source: patent publication US7960377B2 (priority 2008, dated 2011)
Read-outs that look alike come from different tables or passages of the source.

How the values were obtained:
Assay in all cases: cell-based
human CB1 receptor = human CB1 receptor (Homo sapiens, UniProt P21554)
human CB2 receptor = human CB2 receptor (Homo sapiens, UniProt P34972); assay type: cell-based
rat CB2 receptor = molecular target: T1, rat CB2 receptor (Rattus norvegicus, UniProt Q9QZN9); assay type: cell-based
T1 sequence (Q9QZN9 1-360): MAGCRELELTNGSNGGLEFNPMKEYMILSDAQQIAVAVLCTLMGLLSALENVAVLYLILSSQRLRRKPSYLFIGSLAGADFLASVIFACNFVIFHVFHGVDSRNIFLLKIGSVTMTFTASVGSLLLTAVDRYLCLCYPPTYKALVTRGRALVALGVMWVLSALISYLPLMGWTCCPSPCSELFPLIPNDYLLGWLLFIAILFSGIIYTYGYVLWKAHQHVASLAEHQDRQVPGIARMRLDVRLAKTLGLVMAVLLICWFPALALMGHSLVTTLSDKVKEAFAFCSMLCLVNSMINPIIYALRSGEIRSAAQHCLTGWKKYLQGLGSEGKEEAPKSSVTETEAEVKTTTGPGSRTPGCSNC

human CB1 receptor, sequence (P21554 whole entry): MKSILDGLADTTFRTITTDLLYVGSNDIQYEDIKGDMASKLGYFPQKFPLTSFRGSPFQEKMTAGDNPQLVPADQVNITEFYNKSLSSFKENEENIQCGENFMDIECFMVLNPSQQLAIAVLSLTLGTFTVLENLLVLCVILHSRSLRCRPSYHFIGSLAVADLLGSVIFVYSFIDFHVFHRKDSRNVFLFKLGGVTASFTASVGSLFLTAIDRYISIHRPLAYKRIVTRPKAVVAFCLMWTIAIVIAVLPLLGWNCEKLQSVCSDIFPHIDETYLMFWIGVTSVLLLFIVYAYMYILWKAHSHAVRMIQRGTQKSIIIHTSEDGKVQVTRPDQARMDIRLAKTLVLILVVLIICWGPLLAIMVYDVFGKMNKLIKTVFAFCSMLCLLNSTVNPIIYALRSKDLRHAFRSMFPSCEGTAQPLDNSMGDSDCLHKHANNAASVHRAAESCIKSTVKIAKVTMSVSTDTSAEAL
human CB2 receptor, sequence (P34972 whole entry): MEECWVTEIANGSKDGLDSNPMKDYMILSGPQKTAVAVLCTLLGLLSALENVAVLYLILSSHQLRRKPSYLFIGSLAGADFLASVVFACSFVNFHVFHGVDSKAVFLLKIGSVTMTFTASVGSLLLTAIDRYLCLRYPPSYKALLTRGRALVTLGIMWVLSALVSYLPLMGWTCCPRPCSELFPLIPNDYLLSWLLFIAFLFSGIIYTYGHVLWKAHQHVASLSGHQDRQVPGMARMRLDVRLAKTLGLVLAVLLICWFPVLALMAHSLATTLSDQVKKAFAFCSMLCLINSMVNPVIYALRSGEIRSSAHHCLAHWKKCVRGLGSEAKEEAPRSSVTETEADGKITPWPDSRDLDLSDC

## CN(CC(C)(C)CO)C(=O)c1cnc2c(c1)N(S(=O)(=O)N1CCc3ccccc3C1)CCO2 [Example 192, 1-(3,4-dihydroisoquinolin-2(1H)-ylsulfonyl)-N-(3-hydroxy-2,2-dimethyl-propyl)-N-methyl-2,3-dihydro-1H-pyrido[2,3-b][1,4]oxazine-7-carboxamide]
Human CB1 receptor
  EC50: > 30 µM
Human CB2 receptor
  EC50: > 30 µM
Rat CB2 receptor
  EC50: > 30 µM

## CC(C)(C)NC(=O)c1cnc2c(c1)N(S(=O)(=O)N1CC(F)(F)C1)CCO2 [Example 193, N-tert-butyl-1-(3,3-difluoroazetidin-1-ylsulfonyl)-2,3-dihydro-1H-pyrido[2,3-b][1,4]oxazine-7-carboxamide]
Human CB1 receptor
  EC50: > 30 µM
Human CB2 receptor
  EC50: > 30 µM
Rat CB2 receptor
  EC50: ≤ 0.03 µM

## CCC(C)(C)NC(=O)c1cnc2c(c1)N(S(=O)(=O)N1CC(F)(F)C1)CCO2 [Example 194, 1-(3,3-difluoroazetidin-1-ylsulfonyl)-N-tert-pentyl-2,3-dihydro-1H-pyrido[2,3-b][1,4]oxazine-7-carboxamide]
Human CB1 receptor
  EC50: > 30 µM
Human CB2 receptor
  EC50: > 30 µM
Rat CB2 receptor
  EC50: ≤ 0.03 µM

## O=C(NC1(C(=O)O)CC1)c1cnc2c(c1)N(S(=O)(=O)c1ccc(C(F)(F)F)cc1)CCO2 [Example 206, 1-(1-(4-(trifluoromethyl)phenylsulfonyl)-2,3-dihydro-1H-pyrido[2,3-b][1,4]oxazine-7-carboxamido)cyclopropanecarboxylic acid]
Human CB1 receptor
  EC50: > 30 µM
Human CB2 receptor; change in intracellular cAMP, CHO-K1 hCB2 cells, class AR, read-out: EC50 values for human CB2 receptor
  EC50: > 30 µM
Rat CB2 receptor
  EC50: > 30 µM

## CC(C)(C)NC(=O)c1cnc2c(c1)N(Cc1ccc(F)cc1)C(=O)CO2 [Example 218, N-tert-butyl-1-(4-fluorobenzyl)-2-oxo-2,3-dihydro-1H-pyrido[2,3-b][1,4]oxazine-7-carboxamide]
Human CB1 receptor
  EC50: > 30 µM
Human CB2 receptor
  EC50: ≤ 0.03 µM
Rat CB2 receptor
  EC50: ≤ 0.03 µM
